Experimental data reported in patent US20230167127A1, “COMPOUNDS AND THEIR USE IN THE TREATMENT OF BACTERIAL INFECTION” (Hoffmann-La Roche Inc., priority 2020, published 2023).
Like-named read-outs stand apart in the source and are kept apart here.

System: Escherichia coli ATCC 25922
Assay: 50% growth inhibitory concentration (IC50) determination, Iso-Sensitest broth dilution
Format: cell-based
Conditions: strain Escherichia coli ATCC 25922, 10-point broth dilution, optical density at 600 nm over 16 h, read-out: Escherichia coli growth inhibition IC50
Protocol: 50% Growth Inhibitory Concentration (IC50) Determination
The in vitro antimicrobial activity of the compounds was determined according to the following procedure:
The assay used a 10-point Iso-Sensitest broth dilution method to measure quantitatively the in vitro
ATCC 25922, Acinetobacter baumannii ATCC 17961, Klebsiella pneumoniae ATCC 43816 and Staphylococcus aureus ATCC 29213.
Stock compounds in DMSO were serially twofold diluted (e.g. range from 50 to 0.097 μM final concentration) in 384 wells microtiter plates and inoculated with 50 μL of the bacterial suspension in Iso-
ell of 50 μL/well. Microtiter plates were incubated at 35±2° C.
Bacterial cell growth was determined with the measurement of optical density at λ=600 nm each 20 minutes over a time course of 16 h.
Growth inhibition was calculated during the logarithmic growth of the bacterial cells with
Table 1 provides the 50% growth inhibitory concentrations (IC50) in micromoles per liter of the compounds of present invention obtained against the strain Escherichia coli ATCC 25922.

[1] = Escherichia coli, ATCC25922, 16 h

Row | Compound | IC50 [nM] | IC50 [1] [nM]
1 | 2-[[2-[2-oxo-3-(3-oxo-4H-pyrazino[2,3-b][1,4]oxazin-6-yl)-1,3-oxazolidin-5-yl]ethylamino]methyl]-6-(1H-triazol-5-ylmethoxy)-2,3-dihydro-1H-indene-4-carbonitrile [Example 426] | 156 | –
2 | N#Cc1cccc2c1CC(CNC1CCC3C(C1)OC(=O)N3c1ccc3c(n1)NC(=O)CO3)C2 (racemic) [Example 31, 2-[[[rac-3a,7a-trans-6,7a-cis-2-oxo-3-(3-oxo-4H-pyrido[3,2-b][1,4]oxazin-6-yl)-3a,4,5,6,7,7a-hexahydro-1,3-benzoxazol-6-yl]amino]methyl]-2,3-dihydro-1H-indene-4-carbonitrile] | 156 | –
3 | O=C1COc2ccc(N3C(=O)OC4CC(NCCC5Cc6cccc(Cl)c6C5)CCC43)nc2N1 (racemic) [Example 32, 6-[rac-3a,7a-trans-6,7a-cis-6-[2-(4-chloro-2,3-dihydro-1H-inden-2-yl)ethylamino]-2-oxo-3a,4,5,6,7,7a-hexahydro-1,3-benzoxazol-3-yl]-4H-pyrido[3.2-b][1,4]oxazin-3-one] | – | 710
4 | O=C1COc2ccc(N3CC(CCNCC4Cc5c(ccnc5Cl)C4O)OC3=O)nc2N1 (racemic) [Example 41, 6-[2-oxo-5-[2-[[rac-(5,6-trans)-1-chloro-5-hydroxy-6,7-dihydro-5H-cyclopenta[c]pyridin-6-yl]methylamino]ethyl]-1,3-oxazolidin-3-yl]-4H-pyrido[3,2-b][1,4]oxazin-3-one; formic acid] | – | 728
5 | Cc1nccc2c1CC(CNCCC1CN(c3ccc4c(n3)NC(=O)CO4)C(=O)O1)C2O (racemic) [Example 43, 6-[2-oxo-5-[2-[[rac-(5,6-trans)-5-hydroxy-1-methyl-6,7-dihydro-5H-cyclopenta[c]pyridin-6-yl]methylamino]ethyl]-1,3-oxazolidin-3-yl]-4H-pyrido[3,2-b][1,4]oxazin-3-one; formic acid] | – | 4140
6 | N#Cc1cccc2c1CC(CNC1CCC3C(C1)OC(=O)N3c1ccc3c(n1)NC(=O)CO3)C2 (racemic) [Example 99, 2-[[[rac-3a,7a-cis-6,7a-trans-2-oxo-3-(3-oxo-4H-pyrido[3,2-b][1,4]oxazin-6-yl)-3a,4,5,6,7,7a-hexahydro-1,3-benzoxazol-6-yl]amino]methyl]-2,3-dihydro-1H-indene-4-carbonitrile; formic acid] | 516 | –
7 | Cc1nccc2c1CC(CNCCC1CN(c3ccc4c(n3)NC(=O)CO4)C(=O)O1)C2N (racemic) [Example 130, 6-[2-oxo-5-[2-[(rac-5,6-trans-5-amino-1-methyl-6,7-dihydro-5H-cyclopenta[c]pyridin-6-yl)methylamino]ethyl]-1,3-oxazolidin-3-yl]-4H-pyrido[3,2-b][1,4]oxazin-3-one; formic acid] | – | 868
8 | N#Cc1cccc2c1CC(CN1CCC3(CC1)CN(c1ccc4c(n1)NC(=O)CO4)C(=O)O3)C2N (racemic) [Example 131, rac-1,2-trans-1-amino-2-[[2-oxo-3-(3-oxo-4H-pyrido[3,2-b][1,4]oxazin-6-yl)-1-oxa-3,8-diazaspiro[4.5]decan-8-yl]methyl]-2,3-dihydro-1H-indene-4-carbonitrile; formic acid] | – | 240
9 | N#Cc1nccc2c1CC(CNCCC1CN(c3ccc4c(n3)NC(=O)CO4)C(=O)O1)C2N (racemic) [Example 133, rac-5,6-trans-5-amino-6-[[2-[2-oxo-3-(3-oxo-4H-pyrido[3,2-b][1,4]oxazin-6-yl)-1,3-oxazolidin-5-yl]ethylamino]methyl]-6,7-dihydro-5H-cyclopenta[c]pyridine-1-carbonitrile; formic acid] | – | 1380
10 | NC1c2cccc(Cl)c2CC1CNCCC1CN(c2cnc3c(c2)NC(=O)CO3)C(=O)O1 (racemic) [Example 135, 7-[2-oxo-5-[2-[[rac-1,2-trans-1-amino-4-chloro-2,3-dihydro-1H-inden-2-yl]methylamino]ethyl]-1,3-oxazolidin-3-yl]-1H-pyrido[2,3-b][1,4]oxazin-2-one; formic acid] | – | 5800
11 | NC1c2cccc(Cl)c2CC1CNCCC1CN(c2cnc3c(n2)NC(=O)CO3)C(=O)O1 (racemic) [Example 136, 6-[2-oxo-5-[2-[[rac-1,2-trans-1-amino-4-chloro-2,3-dihydro-1H-inden-2-yl]methylamino]ethyl]-1,3-oxazolidin-3-yl]-4H-pyrazino[2,3-b][1,4]oxazin-3-one; formic acid] | – | 112
12 | N#Cc1cccc2c1CC(CNCCC1CN(c3ccc4c(n3)NC(=O)CO4)C(=O)O1)C2O (racemic) [Example 139, rac-1,2-trans-1-hydroxy-2-[[2-[2-oxo-3-(3-oxo-4H-pyrido[3,2-b][1,4]oxazin-6-yl)-1,3-oxazolidin-5-yl]ethylamino]methyl]-2,3-dihydro-1H-indene-4-carbonitrile] | – | 513
13 | NC1c2ccnc(Cl)c2CC1CNCCC1CN(c2ccc3c(n2)NC(=O)CO3)C(=O)O1 (racemic) [Example 146, 6-[2-oxo-5-[2-[[rac-5,6-cis-5-amino-1-chloro-6,7-dihydro-5H-cyclopenta[c]pyridin-6-yl]methylamino]ethyl]-1,3-oxazolidin-3-yl]-4H-pyrido[3,2-b][1,4]oxazin-3-one; formic acid] | – | 1010
14 | NC1c2cccc(Cl)c2CC1CNCCc1nn(-c2ccc3c(c2)NC(=O)CO3)c(=O)o1 (racemic) [Example 147, 6-[2-oxo-5-[2-[[rac-1,2-trans-1-amino-4-chloro-2,3-dihydro-1H-inden-2-yl]methylamino]ethyl]-1,3,4-oxadiazol-3-yl]-4H-1,4-benzoxazin-3-one; formic acid] | – | < 97.7
15 | N#Cc1cccc2c1CC(CNCCC1OC(=O)N(c3ccc4c(n3)NC(=O)CO4)C1CN)C2 (racemic) [Example 148, 2-[[2-[rac-4,5-cis-4-(aminomethyl)-2-oxo-3-(3-oxo-4H-pyrido[3,2-b][1,4]oxazin-6-yl)-1,3-oxazolidin-5-yl]ethylamino]methyl]-2,3-dihydro-1H-indene-4-carbonitrile; formic acid] | – | 598
16 | N#Cc1cccc2c1CC(CNCCC1OC(=O)N(c3ccc4c(n3)NC(=O)CO4)C1CN)C2 (racemic) [Example 149, 2-[[2-[rac-4,5-trans-4-(aminomethyl)-2-oxo-3-(3-oxo-4H-pyrido[3,2-b][1,4]oxazin-6-yl)-1,3-oxazolidin-5-yl]ethylamino]methyl]-2,3-dihydro-1H-indene-4-carbonitrile; formic acid] | 904 | –
17 | N#Cc1cccc2c1C(O)C(CNCCC1CN(c3ccc4c(n3)NC(=O)CO4)C(=O)O1)C2 (racemic) [Example 151, rac-2,3-trans-3-hydroxy-2-[[2-[2-oxo-3-(3-oxo-4H-pyrido[3,2-b][1,4]oxazin-6-yl)-1,3-oxazolidin-5-yl]ethylamino]methyl]-2,3-dihydro-1H-indene-4-carbonitrile; formic acid] | – | 140
18 | N#Cc1cccc2c1C(O)C(CNCCC1CN(c3ccc4c(n3)NC(=O)CS4)C(=O)O1)C2 (racemic) [Example 152, rac-2,3-trans-3-hydroxy-2-[[2-[2-oxo-3-(3-oxo-4H-pyrido[3,2-b][1,4]thiazin-6-yl)-1,3-oxazolidin-5-yl]ethylamino]methyl]-2,3-dihydro-1H-indene-4-carbonitrile; formic acid] | – | 149
19 | NC1c2cccc(Cl)c2CC1CNCCc1nn(-c2ccc3c(n2)NC(=O)CO3)c(=O)o1 (racemic) [Example 153, 6-[5-[2-[(rac-1,2-trans-1-amino-4-chloro-2,3-dihydro-1H-inden-2-yl)methylamino]ethyl]-2-oxo-1,3,4-oxadiazol-3-yl]-4H-pyrido[3,2-b][1,4]oxazin-3-one] | – | 198
20 | N#Cc1cccc2c1C(N)C(CNCCC1CN(c3ccc4c(n3)NC(=O)CO4)C(=O)O1)C2 (racemic) [Example 156, rac-2,3-trans-3-amino-2-[[2-[2-oxo-3-(3-oxo-4H-pyrido[3,2-b][1,4]oxazin-6-yl)-1,3-oxazolidin-5-yl]ethylamino]methyl]-2,3-dihydro-1H-indene-4-carbonitrile] | – | < 97.7
21 | N#Cc1cccc2c1C(N)C(CNCCC1CN(c3ccc4c(n3)NC(=O)CS4)C(=O)O1)C2 (racemic) [Example 157, rac-2,3-trans-3-amino-2-[[2-[2-oxo-3-(3-oxo-4H-pyrido[3,2-b][1,4]thiazin-6-yl)-1,3-oxazolidin-5-yl]ethylamino]methyl]-2,3-dihydro-1H-indene-4-carbonitrile] | – | < 97.7
22 | NC1c2cccc(F)c2CC1CNCCC1CN(c2ccc3c(n2)NC(=O)CO3)C(=O)O1 (racemic) [Example 163, 6-[5-[2-[(rac-1,2-trans-1-amino-4-fluoro-2,3-dihydro-1H-inden-2-yl)methylamino]ethyl]-2-oxo-1,3-oxazolidin-3-yl]-4H-pyrido[3,2-b][1,4]oxazin-3-one] | – | 131
23 | NC1c2cccc(F)c2CC1CNCCC1CN(c2cnc3c(n2)NC(=O)CO3)C(=O)O1 (racemic) [Example 164, 6-[5-[2-[(rac-1,2-trans-1-amino-4-fluoro-2,3-dihydro-1H-inden-2-yl)methylamino]ethyl]-2-oxo-1,3-oxazolidin-3-yl]-4H-pyrazino[2,3-b][1,4]oxazin-3-one; formic acid] | – | < 97.7
24 | NC1c2cccc(F)c2CC1CNCCC1CN(c2ccc3c(n2)NC(=O)CS3)C(=O)O1 (racemic) [Example 165, 5-[2-[(rac-1,2-trans-1-amino-4-fluoro-2,3-dihydro-1H-inden-2-yl)methylamino]ethyl]-3-(3-oxo-4H-pyrido[3,2-b][1,4]thiazin-6-yl)-1,3-oxazolidin-2-one; formic acid] | – | < 97.7
